Measured values published in PubChem BioAssay (NCI).
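Five compound concentrations were applied to cells in 96-well plates for 48 hours; endpoints were derived by simple linear interpolation of the resulting dose-response curve. Definition used: TGI = concentration required for complete inhibition of growth.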

Assays:
Assay in all cases: NCI-60 cell line screen, 48 h
[1] = system: OVCAR-4 ovarian
[2] = system: RXF-631 renal
[3] = system: LXFL 529 NSCLC
[4] = system: KM20L2 colon
[5] = system: HT29 colon
[6] = system: NCI-H522 lung
[7] = system: CCRF-CEM leukemia
[8] = system: MALME-3M melanoma
[9] = system: XF 498 CNS
[10] = system: SF-268 CNS
[11] = system: OVCAR-3 ovarian
[12] = system: HL-60(TB) leukemia
[13] = system: KM12 colon
[14] = system: RPMI-8226 leukemia
[15] = system: A549 NSCLC
[16] = system: HCC-2998 colon
[17] = system: M19-MEL melanoma
[18] = system: SF-295 CNS
[19] = system: UO-31 renal
[20] = system: SN12C renal
[21] = system: SNB-78 CNS
[22] = system: HCT-15 colon
[23] = system: SK-MEL-5 melanoma
[24] = system: SNB-75 CNS
[25] = system: OVCAR-5 ovarian
[26] = system: OVCAR-8 ovarian
[27] = system: K-562 leukemia
[28] = system: M14 melanoma
[29] = system: SK-MEL-28 melanoma
[30] = system: EKVX NSCLC
[31] = system: DMS 273 small cell lung
[32] = system: CAKI-1 renal
[33] = system: A498 renal
[34] = system: SW-620 colon
[35] = system: DLD-1 colon
[36] = system: 786-0 renal
[37] = system: ACHN renal
[38] = system: HOP-92 NSCLC
[39] = system: NCI-H226 lung
[40] = system: HOP-62 NSCLC
[41] = system: TK-10 renal
[42] = system: COLO 205 colon
[43] = system: UACC-62 melanoma
[44] = system: SK-MEL-2 melanoma
[45] = system: U251 CNS
[46] = system: MOLT-4 leukemia
[47] = system: SNB-19 CNS
[48] = system: HOP-18 NSCLC
[49] = system: SK-OV-3 ovarian
[50] = system: IGROV1 ovarian
[51] = system: UACC-257 melanoma
[52] = system: LOX IMVI melanoma
[53] = system: HCT-116 colon
[54] = system: NCI-H460 lung
[55] = system: NCI-H23 lung
[56] = system: RXF 393 renal
[57] = system: DMS 114 small cell lung
[58] = system: SF-539 CNS
[59] = system: SR leukemia

SMILES: COC(=O)C1CCC(Nc2ccc(C)cc2C)=N1 (stereo unspecified)
- TGI [1]: > 100 µM
- TGI [2]: > 100 µM
- TGI [3]: > 100 µM
- TGI [4]: > 100 µM
- TGI [5]: > 100 µM
- TGI [6]: > 100 µM
- TGI [7]: > 100 µM
- TGI [8]: > 100 µM
- TGI [9]: > 100 µM
- TGI [10]: > 100 µM
- TGI [11]: > 100 µM
- TGI [12]: > 100 µM
- TGI [13]: > 100 µM
- TGI [14]: > 100 µM
- TGI [15]: > 100 µM
- TGI [16]: > 100 µM
- TGI [17]: > 100 µM
- TGI [18]: > 100 µM
- TGI [19]: > 100 µM
- TGI [20]: > 100 µM
- TGI [21]: > 100 µM
- TGI [22]: > 100 µM
- TGI [23]: > 100 µM
- TGI [24]: > 100 µM
- TGI [25]: > 100 µM
- TGI [26]: > 100 µM
- TGI [27]: > 100 µM
- TGI [28]: > 100 µM
- TGI [29]: > 100 µM
- TGI [30]: > 100 µM
- TGI [31]: > 100 µM
- TGI [32]: > 100 µM
- TGI [33]: > 100 µM
- TGI [34]: > 100 µM
- TGI [35]: > 100 µM
- TGI [36]: > 100 µM
- TGI [37]: > 100 µM
- TGI [38]: > 100 µM
- TGI [39]: > 100 µM
- TGI [40]: > 100 µM
- TGI [41]: > 100 µM
- TGI [42]: > 100 µM
- TGI [43]: > 100 µM
- TGI [44]: > 100 µM
- TGI [45]: > 100 µM
- TGI [46]: > 100 µM
- TGI [47]: > 100 µM
- TGI [48]: > 100 µM
- TGI [49]: > 100 µM
- TGI [50]: > 100 µM
- TGI [51]: > 100 µM
- TGI [52]: > 100 µM
- TGI [53]: > 100 µM
- TGI [54]: > 100 µM
- TGI [55]: > 100 µM

SMILES: O=C(O)C1=CCCc2ccc3ccccc3c21
- TGI [56]: > 100 µM
- TGI [1]: > 100 µM
- TGI [2]: > 100 µM
- TGI [3]: > 100 µM
- TGI [4]: > 100 µM
- TGI [5]: > 100 µM
- TGI [6]: > 100 µM
- TGI [8]: > 100 µM
- TGI [9]: > 100 µM
- TGI [10]: > 100 µM
- TGI [11]: > 100 µM
- TGI [13]: > 100 µM
- TGI [14]: > 100 µM
- TGI [15]: > 100 µM
- TGI [17]: > 100 µM
- TGI [18]: > 100 µM
- TGI [19]: > 100 µM
- TGI [20]: > 100 µM
- TGI [21]: > 100 µM
- TGI [22]: > 100 µM
- TGI [24]: > 100 µM
- TGI [25]: > 100 µM
- TGI [26]: > 100 µM
- TGI [27]: > 100 µM
- TGI [28]: > 100 µM
- TGI [29]: > 100 µM
- TGI [30]: > 100 µM
- TGI [31]: > 100 µM
- TGI [33]: > 100 µM
- TGI [34]: > 100 µM
- TGI [36]: > 100 µM
- TGI [37]: > 100 µM
- TGI [38]: > 100 µM
- TGI [39]: > 100 µM
- TGI [41]: > 100 µM
- TGI [42]: > 100 µM
- TGI [43]: > 100 µM
- TGI [44]: > 100 µM
- TGI [45]: > 100 µM
- TGI [46]: > 100 µM
- TGI [47]: > 100 µM
- TGI [48]: > 100 µM
- TGI [49]: > 100 µM
- TGI [50]: > 100 µM
- TGI [57]: > 100 µM
- TGI [51]: > 100 µM
- TGI [52]: > 100 µM
- TGI [58]: > 100 µM
- TGI [53]: > 100 µM
- TGI [54]: > 100 µM
- TGI [55]: > 100 µM

SMILES: CCOCN1COCN=C1NC#N
- TGI [56]: 34.7 µM
- TGI [1]: > 100 µM
- TGI [2]: > 100 µM
- TGI [3]: > 100 µM
- TGI [4]: > 100 µM
- TGI [5]: > 100 µM
- TGI [6]: > 100 µM
- TGI [8]: > 100 µM
- TGI [9]: > 100 µM
- TGI [10]: > 100 µM
- TGI [11]: > 100 µM
- TGI [12]: > 100 µM
- TGI [13]: > 100 µM
- TGI [15]: > 100 µM
- TGI [16]: > 100 µM
- TGI [18]: > 100 µM
- TGI [19]: > 100 µM
- TGI [20]: > 100 µM
- TGI [21]: > 100 µM
- TGI [22]: > 100 µM
- TGI [23]: > 100 µM
- TGI [24]: > 100 µM
- TGI [25]: > 100 µM
- TGI [26]: > 100 µM
- TGI [27]: > 100 µM
- TGI [28]: > 100 µM
- TGI [29]: > 100 µM
- TGI [30]: > 100 µM
- TGI [31]: > 100 µM
- TGI [32]: > 100 µM
- TGI [33]: > 100 µM
- TGI [34]: 35.3 µM
- TGI [35]: > 100 µM
- TGI [59]: 76.5 µM
- TGI [36]: > 100 µM
- TGI [37]: > 100 µM
- TGI [38]: > 100 µM
- TGI [39]: > 100 µM
- TGI [40]: > 100 µM
- TGI [41]: > 100 µM
- TGI [42]: 69.7 µM
- TGI [43]: > 100 µM
- TGI [44]: > 100 µM
- TGI [45]: > 100 µM
- TGI [46]: > 100 µM
- TGI [47]: > 100 µM
- TGI [48]: > 100 µM
- TGI [49]: > 100 µM
- TGI [50]: > 100 µM
- TGI [57]: > 100 µM
- TGI [51]: > 100 µM
- TGI [58]: > 100 µM
- TGI [53]: > 100 µM
- TGI [54]: > 100 µM
- TGI [55]: > 100 µM
